In ChEMBL document CHEMBL1201862, “PubChem BioAssay data set” (2004):
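Test compounds were applied to cells in 96-well plates for 48 hours at 5 doses. GI50 is the concentration that inhibits growth by half.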 Calls of active or inactive are those of the source. Cut-off read from the data, not from the text of the source: active = GI50 up to about 1.1 µM and inactive = higher.

What was measured:
Assay in all cases: NCI-60 cell line screen, 48 h
COLO 205 = system: COLO 205
KM12 = system: KM12
SK-MEL-28 = system: SK-MEL-28
RXF 393 = system: RXF 393
SNB-75 = system: SNB-75
SK-MEL-5 = system: SK-MEL-5
UO-31 = system: UO-31
786-0 = system: 786-0
TK-10 = system: TK-10
A549 = system: A549
SN12C = system: SN12C
UACC-62 = system: UACC-62
NCI/ADR-RES = system: NCI/ADR-RES
SW-620 = system: SW-620
SF-268 = system: SF-268
MDA-N = system: MDA-N
MCF7 = system: MCF7
EKVX = system: EKVX
OVCAR-5 = system: OVCAR-5
HOP-92 = system: HOP-92
SK-OV-3 = system: SK-OV-3
MDA-MB-231 = system: MDA-MB-231
PC-3 = system: PC-3
T47D = system: T47D
SK-MEL-2 = system: SK-MEL-2
SNB-19 = system: SNB-19
Hs-578T = system: Hs-578T
K562 = system: K562
HCT-15 = system: HCT-15
A498 = system: A498
MDA-MB-435 = system: MDA-MB-435
U-251 = system: U-251
M14 = system: M14
HCT-116 = system: HCT-116
NCI-H460 = system: NCI-H460
HT-29 = system: HT-29
NCI-H23 = system: NCI-H23
MOLT-4 = system: MOLT-4
CAKI-1 = system: CAKI-1
UACC-257 = system: UACC-257
DU-145 = system: DU-145
OVCAR-4 = system: OVCAR-4
OVCAR-8 = system: OVCAR-8
LOX IMVI = system: LOX IMVI
IGROV-1 = system: IGROV-1
HOP-62 = system: HOP-62
SF-295 = system: SF-295
Malme-3M = system: Malme-3M
NCI-H522 = system: NCI-H522
ACHN = system: ACHN
SR = system: SR
BT-549 = system: BT-549
HL-60 = system: HL-60
NCI-H226 = system: NCI-H226

## OC(c1cc2ccccc2[nH]1)C1(c2cccnc2)SCCCS1 (centres undefined)
COLO 205
  GI50: 61.4 µM (inactive)
KM12
  GI50: 26.7 µM (inactive)
SK-MEL-28
  GI50: > 100 µM (inactive)
RXF 393
  GI50: 31.8 µM (inactive)
SNB-75
  GI50: 73.6 µM (inactive)
SK-MEL-5
  GI50: 43.6 µM (inactive)
UO-31
  GI50: 25.2 µM (inactive)
786-0
  GI50: 97.3 µM (inactive)
TK-10
  GI50: > 100 µM (inactive)
A549
  GI50: 47.6 µM (inactive)
SN12C
  GI50: 99.3 µM (inactive)
UACC-62
  GI50: 50.9 µM (inactive)
NCI/ADR-RES
  GI50: 53.3 µM (inactive)
SW-620
  GI50: 90.6 µM (inactive)
SF-268
  GI50: 43.3 µM (inactive)
MDA-N
  GI50: 52.2 µM (inactive)
MCF7
  GI50: 39.5 µM (inactive)
EKVX
  GI50: 21.2 µM (inactive)
OVCAR-5
  GI50: 24.1 µM (inactive)
HOP-92
  GI50: > 100 µM (inactive)
SK-OV-3
  GI50: > 100 µM (inactive)
MDA-MB-231
  GI50: 23.1 µM (inactive)
PC-3
  GI50: 38.5 µM (inactive)
T47D
  GI50: 69.7 µM (inactive)
SK-MEL-2
  GI50: 19.1 µM (inactive)
SNB-19
  GI50: > 100 µM (inactive)
Hs-578T
  GI50: 41.3 µM (inactive)
K562
  GI50: 27.2 µM (inactive)
HCT-15
  GI50: 84.7 µM
A498
  GI50: 17.9 µM (inactive)
MDA-MB-435
  GI50: 33.6 µM (inactive)
U-251
  GI50: 47.1 µM (inactive)
M14
  GI50: 51.2 µM (inactive)
HCT-116
  GI50: 59 µM (inactive)
NCI-H460
  GI50: 94.6 µM (inactive)
HT-29
  GI50: 33 µM (inactive)
NCI-H23
  GI50: 35.6 µM (inactive)
MOLT-4
  GI50: 27.9 µM (inactive)
CAKI-1
  GI50: > 100 µM (inactive)
UACC-257
  GI50: 52 µM (inactive)
DU-145
  GI50: > 100 µM (inactive)
OVCAR-4
  GI50: 48.8 µM (inactive)
OVCAR-8
  GI50: 63.8 µM (inactive)
LOX IMVI
  GI50: 79.4 µM (inactive)
IGROV-1
  GI50: 53.8 µM (inactive)
HOP-62
  GI50: 50.2 µM (inactive)
SF-295
  GI50: 68.5 µM (inactive)
Malme-3M
  GI50: 87.3 µM (inactive)
NCI-H522
  GI50: 38.5 µM (inactive)
ACHN
  GI50: 86.5 µM (inactive)
SR
  GI50: 41.8 µM (inactive)
BT-549
  GI50: 57.9 µM (inactive)
HL-60
  GI50: 26.2 µM (inactive)
NCI-H226
  GI50: > 100 µM (inactive)
